In article PMC11864979, “First-in-class ultralong-target-residence-time p38α inhibitors as a mitosis-targeted therapy for colorectal cancer” (Nature Cancer, 2025):
Like-named read-outs stand apart in the source and are kept apart here.

Legend:
Assay in all cases: selectivity profiling in a panel of 340 wild-type kinases (Reaction Biology Europe)
Type in all cases: binding
340 wild-type kinases [1] = biological target: T1, 340 wild-type kinases (Homo sapiens, UniProt P08069)
T1 construct: purchased Reaction Biology Europe

340 wild-type kinases [2] = biological target: T2, 340 wild-type kinases (Homo sapiens, UniProt P29376)
T2 construct: purchased Reaction Biology Europe
T2 sequence (P29376 17-864): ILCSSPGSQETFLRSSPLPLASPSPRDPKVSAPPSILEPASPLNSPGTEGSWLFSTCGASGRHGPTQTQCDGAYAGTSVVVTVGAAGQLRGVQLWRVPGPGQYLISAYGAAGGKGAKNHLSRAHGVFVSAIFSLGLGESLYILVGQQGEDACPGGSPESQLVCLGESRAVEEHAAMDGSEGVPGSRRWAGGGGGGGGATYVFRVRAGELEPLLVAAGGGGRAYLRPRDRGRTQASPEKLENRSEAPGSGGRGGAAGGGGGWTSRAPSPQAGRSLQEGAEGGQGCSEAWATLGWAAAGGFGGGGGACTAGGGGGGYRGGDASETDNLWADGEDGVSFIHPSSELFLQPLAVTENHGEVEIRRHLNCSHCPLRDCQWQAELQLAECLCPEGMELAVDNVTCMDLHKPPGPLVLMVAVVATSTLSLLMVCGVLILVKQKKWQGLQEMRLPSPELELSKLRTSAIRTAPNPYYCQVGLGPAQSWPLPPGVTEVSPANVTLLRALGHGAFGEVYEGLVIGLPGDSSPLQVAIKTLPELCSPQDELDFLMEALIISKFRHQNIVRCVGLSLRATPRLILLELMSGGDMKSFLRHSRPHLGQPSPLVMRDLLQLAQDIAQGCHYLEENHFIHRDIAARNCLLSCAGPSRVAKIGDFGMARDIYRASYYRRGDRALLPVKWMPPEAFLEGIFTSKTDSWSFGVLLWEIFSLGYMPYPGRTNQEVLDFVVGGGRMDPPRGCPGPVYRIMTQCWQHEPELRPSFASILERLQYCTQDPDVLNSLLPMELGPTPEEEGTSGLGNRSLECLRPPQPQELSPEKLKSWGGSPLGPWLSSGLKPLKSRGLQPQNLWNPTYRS

340 wild-type kinases [3] = biological target: T3, 340 wild-type kinases (Homo sapiens, UniProt P07332)
T3 construct: purchased Reaction Biology Europe
T3 sequence (P07332 whole entry): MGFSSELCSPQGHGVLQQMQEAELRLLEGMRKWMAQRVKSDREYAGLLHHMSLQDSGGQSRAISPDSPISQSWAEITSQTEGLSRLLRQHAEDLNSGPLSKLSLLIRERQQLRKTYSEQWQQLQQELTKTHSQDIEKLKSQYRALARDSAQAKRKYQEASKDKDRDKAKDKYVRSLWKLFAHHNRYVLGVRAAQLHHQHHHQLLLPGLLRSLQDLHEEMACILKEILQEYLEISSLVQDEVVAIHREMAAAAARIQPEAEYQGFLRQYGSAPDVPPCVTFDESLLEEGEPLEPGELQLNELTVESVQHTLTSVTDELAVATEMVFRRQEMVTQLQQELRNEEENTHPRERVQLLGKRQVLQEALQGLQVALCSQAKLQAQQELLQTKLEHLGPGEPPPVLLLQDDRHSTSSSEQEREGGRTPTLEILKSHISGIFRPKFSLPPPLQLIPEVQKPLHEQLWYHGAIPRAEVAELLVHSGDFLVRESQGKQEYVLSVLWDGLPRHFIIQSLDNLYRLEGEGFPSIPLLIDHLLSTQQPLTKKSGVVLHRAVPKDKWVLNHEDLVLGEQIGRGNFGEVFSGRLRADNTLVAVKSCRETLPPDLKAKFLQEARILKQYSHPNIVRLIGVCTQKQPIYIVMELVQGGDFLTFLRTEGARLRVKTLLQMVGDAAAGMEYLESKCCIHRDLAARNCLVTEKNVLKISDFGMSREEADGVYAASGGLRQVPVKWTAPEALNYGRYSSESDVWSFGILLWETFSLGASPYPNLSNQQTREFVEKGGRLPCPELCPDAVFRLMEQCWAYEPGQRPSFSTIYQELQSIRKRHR

340 wild-type kinases [4] = biological target: T4, 340 wild-type kinases (Homo sapiens, UniProt P06213)
T4 construct: purchased Reaction Biology Europe
T4 sequence (P06213 28-1382): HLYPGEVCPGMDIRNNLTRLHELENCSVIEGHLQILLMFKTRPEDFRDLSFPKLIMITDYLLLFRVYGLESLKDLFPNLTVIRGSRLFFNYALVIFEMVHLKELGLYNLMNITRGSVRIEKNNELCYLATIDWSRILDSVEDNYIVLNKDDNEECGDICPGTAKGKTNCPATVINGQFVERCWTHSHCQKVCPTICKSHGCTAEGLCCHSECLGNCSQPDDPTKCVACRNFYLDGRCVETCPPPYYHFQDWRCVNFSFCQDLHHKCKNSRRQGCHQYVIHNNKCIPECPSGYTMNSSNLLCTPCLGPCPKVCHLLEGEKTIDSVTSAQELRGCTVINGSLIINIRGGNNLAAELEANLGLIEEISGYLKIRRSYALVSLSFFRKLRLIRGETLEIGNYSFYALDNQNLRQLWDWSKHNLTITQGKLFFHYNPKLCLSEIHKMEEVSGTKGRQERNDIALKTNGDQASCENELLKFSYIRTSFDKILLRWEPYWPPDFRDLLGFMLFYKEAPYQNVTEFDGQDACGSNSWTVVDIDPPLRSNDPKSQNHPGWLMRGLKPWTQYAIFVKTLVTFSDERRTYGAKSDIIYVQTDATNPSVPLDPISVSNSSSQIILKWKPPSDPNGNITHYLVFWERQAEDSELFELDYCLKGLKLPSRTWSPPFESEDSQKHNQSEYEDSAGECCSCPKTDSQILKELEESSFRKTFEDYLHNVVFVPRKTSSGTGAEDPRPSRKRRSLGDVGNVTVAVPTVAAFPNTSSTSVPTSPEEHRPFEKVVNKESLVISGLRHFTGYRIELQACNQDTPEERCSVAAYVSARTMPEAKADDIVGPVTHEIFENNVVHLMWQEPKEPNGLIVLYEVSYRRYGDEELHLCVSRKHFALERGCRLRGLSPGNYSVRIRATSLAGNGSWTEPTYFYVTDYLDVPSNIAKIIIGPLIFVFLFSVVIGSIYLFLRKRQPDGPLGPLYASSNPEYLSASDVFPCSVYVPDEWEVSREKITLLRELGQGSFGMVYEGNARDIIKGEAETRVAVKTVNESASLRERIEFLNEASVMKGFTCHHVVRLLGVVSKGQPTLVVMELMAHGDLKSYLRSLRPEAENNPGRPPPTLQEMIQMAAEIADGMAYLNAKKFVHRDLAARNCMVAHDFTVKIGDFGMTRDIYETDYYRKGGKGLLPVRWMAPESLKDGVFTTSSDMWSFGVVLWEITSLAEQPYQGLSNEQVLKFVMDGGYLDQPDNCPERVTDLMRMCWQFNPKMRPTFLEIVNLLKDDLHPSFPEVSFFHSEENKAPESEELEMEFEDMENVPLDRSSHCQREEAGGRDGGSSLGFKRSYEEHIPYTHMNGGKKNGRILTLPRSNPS

340 wild-type kinases [5] = biological target: T5, 340 wild-type kinases (Homo sapiens, UniProt P57078)
T5 construct: purchased Reaction Biology Europe
T5 sequence (P57078 1-832): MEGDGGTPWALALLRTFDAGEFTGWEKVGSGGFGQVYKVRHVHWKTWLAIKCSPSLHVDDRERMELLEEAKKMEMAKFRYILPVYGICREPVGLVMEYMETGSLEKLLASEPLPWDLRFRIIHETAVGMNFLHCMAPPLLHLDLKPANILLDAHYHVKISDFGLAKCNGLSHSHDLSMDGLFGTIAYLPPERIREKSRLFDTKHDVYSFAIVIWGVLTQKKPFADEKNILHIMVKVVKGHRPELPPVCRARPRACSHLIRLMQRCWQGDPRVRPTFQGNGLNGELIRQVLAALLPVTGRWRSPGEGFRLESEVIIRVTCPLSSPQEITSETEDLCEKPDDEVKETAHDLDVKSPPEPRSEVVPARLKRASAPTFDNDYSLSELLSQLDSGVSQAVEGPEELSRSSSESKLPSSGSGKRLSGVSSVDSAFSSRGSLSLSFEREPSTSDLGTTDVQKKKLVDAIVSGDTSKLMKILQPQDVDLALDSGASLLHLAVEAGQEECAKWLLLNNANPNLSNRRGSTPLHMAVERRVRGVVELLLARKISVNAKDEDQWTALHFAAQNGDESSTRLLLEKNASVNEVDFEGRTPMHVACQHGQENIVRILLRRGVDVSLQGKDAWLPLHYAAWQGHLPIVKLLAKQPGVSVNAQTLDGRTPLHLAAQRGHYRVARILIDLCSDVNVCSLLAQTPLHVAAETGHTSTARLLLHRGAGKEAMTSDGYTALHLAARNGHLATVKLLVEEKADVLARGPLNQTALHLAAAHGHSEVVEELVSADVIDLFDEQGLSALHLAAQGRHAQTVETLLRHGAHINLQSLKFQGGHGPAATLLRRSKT

340 wild-type kinases [6] = biological target: T6, 340 wild-type kinases (Homo sapiens, UniProt P45983)
T6 construct: purchased Reaction Biology Europe

340 wild-type kinases [7] = biological target: T7, 340 wild-type kinases (Homo sapiens, UniProt Q9Y2U5)
T7 construct: purchased Reaction Biology Europe
T7 sequence (Q9Y2U5 1-619): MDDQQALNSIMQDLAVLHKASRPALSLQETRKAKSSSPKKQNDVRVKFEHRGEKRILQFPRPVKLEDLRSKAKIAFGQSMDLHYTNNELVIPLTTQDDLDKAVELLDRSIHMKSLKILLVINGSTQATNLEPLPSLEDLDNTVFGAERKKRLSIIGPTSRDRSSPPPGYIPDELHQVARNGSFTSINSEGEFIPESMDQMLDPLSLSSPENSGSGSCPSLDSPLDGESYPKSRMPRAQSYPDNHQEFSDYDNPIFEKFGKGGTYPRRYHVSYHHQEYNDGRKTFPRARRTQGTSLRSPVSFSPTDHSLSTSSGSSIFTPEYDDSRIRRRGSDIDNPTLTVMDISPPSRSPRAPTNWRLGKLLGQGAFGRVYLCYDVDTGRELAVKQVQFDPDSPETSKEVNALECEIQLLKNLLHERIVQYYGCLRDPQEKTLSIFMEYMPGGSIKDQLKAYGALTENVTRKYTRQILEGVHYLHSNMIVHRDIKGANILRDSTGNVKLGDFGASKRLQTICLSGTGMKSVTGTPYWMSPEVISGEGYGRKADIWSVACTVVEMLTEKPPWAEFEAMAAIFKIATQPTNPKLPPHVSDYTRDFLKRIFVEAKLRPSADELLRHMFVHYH

340 wild-type kinases [8] = biological target: T8, 340 wild-type kinases (Homo sapiens, UniProt Q15375)
T8 construct: purchased Reaction Biology Europe

340 wild-type kinases [9] = biological target: T9, 340 wild-type kinases (Homo sapiens, UniProt Q02779)
T9 construct: purchased Reaction Biology Europe

340 wild-type kinases [10] = biological target: T10, 340 wild-type kinases (Homo sapiens, UniProt Q16620)
T10 construct: purchased Reaction Biology Europe
T10 sequence (Q16620 32-822): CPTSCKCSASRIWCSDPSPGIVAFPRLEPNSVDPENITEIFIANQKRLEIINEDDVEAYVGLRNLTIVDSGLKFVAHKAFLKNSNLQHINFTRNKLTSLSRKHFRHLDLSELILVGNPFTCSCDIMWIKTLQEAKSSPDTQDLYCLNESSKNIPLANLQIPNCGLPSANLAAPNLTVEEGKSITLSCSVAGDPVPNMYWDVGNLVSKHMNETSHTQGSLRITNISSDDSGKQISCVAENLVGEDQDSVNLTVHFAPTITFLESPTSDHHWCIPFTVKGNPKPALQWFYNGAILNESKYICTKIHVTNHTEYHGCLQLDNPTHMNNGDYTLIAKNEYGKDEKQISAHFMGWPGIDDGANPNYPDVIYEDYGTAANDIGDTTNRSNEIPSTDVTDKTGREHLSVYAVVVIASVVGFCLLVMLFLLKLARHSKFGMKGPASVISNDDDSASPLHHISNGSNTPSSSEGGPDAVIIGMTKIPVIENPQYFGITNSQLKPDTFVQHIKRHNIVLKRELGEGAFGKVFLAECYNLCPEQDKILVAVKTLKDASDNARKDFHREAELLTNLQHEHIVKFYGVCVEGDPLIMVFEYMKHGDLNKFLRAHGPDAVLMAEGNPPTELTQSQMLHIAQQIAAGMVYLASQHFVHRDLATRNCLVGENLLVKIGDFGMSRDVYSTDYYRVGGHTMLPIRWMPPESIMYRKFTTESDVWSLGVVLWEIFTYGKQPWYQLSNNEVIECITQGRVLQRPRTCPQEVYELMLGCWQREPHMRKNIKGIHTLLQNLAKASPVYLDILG

340 wild-type kinases [11] = biological target: T11, 340 wild-type kinases (Homo sapiens, UniProt P07333)
T11 construct: purchased Reaction Biology Europe
T11 sequence (P07333 20-972): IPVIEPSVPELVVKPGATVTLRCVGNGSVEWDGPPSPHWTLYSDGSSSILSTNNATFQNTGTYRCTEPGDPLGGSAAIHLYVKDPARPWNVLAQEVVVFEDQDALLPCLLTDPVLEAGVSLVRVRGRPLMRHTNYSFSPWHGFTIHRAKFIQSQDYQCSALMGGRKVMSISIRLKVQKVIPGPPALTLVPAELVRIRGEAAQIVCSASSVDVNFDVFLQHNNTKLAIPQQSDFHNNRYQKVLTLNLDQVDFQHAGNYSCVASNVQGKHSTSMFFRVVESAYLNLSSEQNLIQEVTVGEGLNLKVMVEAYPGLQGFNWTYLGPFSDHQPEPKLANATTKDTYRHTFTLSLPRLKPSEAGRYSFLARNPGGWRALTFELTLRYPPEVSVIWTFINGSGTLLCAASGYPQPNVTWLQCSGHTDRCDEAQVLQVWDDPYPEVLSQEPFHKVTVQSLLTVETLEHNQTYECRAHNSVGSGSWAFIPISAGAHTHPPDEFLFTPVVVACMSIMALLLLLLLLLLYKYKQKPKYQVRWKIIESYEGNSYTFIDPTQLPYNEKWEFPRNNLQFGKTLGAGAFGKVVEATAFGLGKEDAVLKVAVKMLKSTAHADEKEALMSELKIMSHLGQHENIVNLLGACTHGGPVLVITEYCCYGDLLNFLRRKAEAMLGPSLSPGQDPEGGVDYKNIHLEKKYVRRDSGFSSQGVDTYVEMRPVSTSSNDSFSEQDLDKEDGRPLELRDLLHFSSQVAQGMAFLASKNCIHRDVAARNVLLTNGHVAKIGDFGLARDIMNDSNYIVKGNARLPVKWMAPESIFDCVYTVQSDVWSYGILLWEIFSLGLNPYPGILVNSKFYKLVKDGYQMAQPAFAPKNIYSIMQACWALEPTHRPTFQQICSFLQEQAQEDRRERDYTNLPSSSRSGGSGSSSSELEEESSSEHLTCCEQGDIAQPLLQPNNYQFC

CNC(=O)c1ccc2c(c1)C(=O)c1ccc(Nc3ccc(F)c(NC(=O)C4CC4)c3)cc1CC2 [Compound 2015]
remaining activity at 0.2 µM (340 wild-type kinases [1]; 0.2 µM 2015, read-out: IGF1R residual activity): 109% | remaining activity at 1 µM (340 wild-type kinases [1]; 1 µM 2015, read-out: IGF1R residual activity): 97.4% | remaining activity at 0.2 µM (340 wild-type kinases [1]; IGF1R, 0.2 µM, read-out: residual activity): 109% | remaining activity at 1 µM (340 wild-type kinases [1]; IGF1R, 1 µM, read-out: residual activity): 97.4% | remaining activity at 0.2 µM (340 wild-type kinases [2]; 0.2 µM 2015, read-out: LTK residual activity): 100% | remaining activity at 1 µM (340 wild-type kinases [2]; 1 µM 2015, read-out: LTK residual activity): 99.3% | remaining activity at 0.2 µM (340 wild-type kinases [2]; LTK, 0.2 µM, read-out: residual activity): 100% | remaining activity at 1 µM (340 wild-type kinases [2]; LTK, 1 µM, read-out: residual activity): 99.3% | remaining activity at 0.2 µM (340 wild-type kinases [3]; 0.2 µM 2015, read-out: FES residual activity): 105% | remaining activity at 1 µM (340 wild-type kinases [3]; 1 µM 2015, read-out: FES residual activity): 92.1% | remaining activity at 0.2 µM (340 wild-type kinases [3]; FES, 0.2 µM, read-out: residual activity): 105% | remaining activity at 1 µM (340 wild-type kinases [3]; FES, 1 µM, read-out: residual activity): 92.1% | remaining activity at 0.2 µM (340 wild-type kinases [4]; 0.2 µM 2015, read-out: INSR residual activity): 99.9% | remaining activity at 1 µM (340 wild-type kinases [4]; 1 µM 2015, read-out: INSR residual activity): 99.3% | remaining activity at 0.2 µM (340 wild-type kinases [4]; INSR, 0.2 µM, read-out: residual activity): 99.9% | remaining activity at 1 µM (340 wild-type kinases [4]; INSR, 1 µM, read-out: residual activity): 99.3% | remaining activity at 0.2 µM (340 wild-type kinases [5]; 0.2 µM 2015, read-out: RIPK4 residual activity): 104% | remaining activity at 1 µM (340 wild-type kinases [5]; 1 µM 2015, read-out: RIPK4 residual activity): 98.2% | remaining activity at 0.2 µM (340 wild-type kinases [5]; RIPK4, 0.2 µM, read-out: residual activity): 104% | remaining activity at 1 µM (340 wild-type kinases [5]; RIPK4, 1 µM, read-out: residual activity): 98.2% | remaining activity at 0.2 µM (340 wild-type kinases [6]; 0.2 µM 2015, read-out: JNK1 residual activity): 107% | remaining activity at 1 µM (340 wild-type kinases [6]; 1 µM 2015, read-out: JNK1 residual activity): 94.2% | remaining activity at 0.2 µM (340 wild-type kinases [6]; JNK1, 0.2 µM, read-out: residual activity): 107% | remaining activity at 1 µM (340 wild-type kinases [6]; JNK1, 1 µM, read-out: residual activity): 94.2% | remaining activity at 0.2 µM (340 wild-type kinases [7]; 0.2 µM 2015, read-out: MEKK2 residual activity): 96.7% | remaining activity at 1 µM (340 wild-type kinases [7]; 1 µM 2015, read-out: MEKK2 residual activity): 95.1% | remaining activity at 0.2 µM (340 wild-type kinases [7]; MEKK2, 0.2 µM, read-out: residual activity): 96.7% | remaining activity at 1 µM (340 wild-type kinases [7]; MEKK2, 1 µM, read-out: residual activity): 95.1% | remaining activity at 0.2 µM (340 wild-type kinases [8]; 0.2 µM 2015, read-out: EPHA7 residual activity): 126% | remaining activity at 1 µM (340 wild-type kinases [8]; 1 µM 2015, read-out: EPHA7 residual activity): 106% | remaining activity at 0.2 µM (340 wild-type kinases [8]; EPHA7, 0.2 µM, read-out: residual activity): 126% | remaining activity at 1 µM (340 wild-type kinases [8]; EPHA7, 1 µM, read-out: residual activity): 106% | remaining activity at 0.2 µM (340 wild-type kinases [9]; 0.2 µM 2015, read-out: MAP3K10 residual activity): 111% | remaining activity at 1 µM (340 wild-type kinases [9]; 1 µM 2015, read-out: MAP3K10 residual activity): 106% | remaining activity at 0.2 µM (340 wild-type kinases [9]; MAP3K10, 0.2 µM, read-out: residual activity): 111% | remaining activity at 1 µM (340 wild-type kinases [9]; MAP3K10, 1 µM, read-out: residual activity): 106% | remaining activity at 0.2 µM (340 wild-type kinases [10]; 0.2 µM 2015, read-out: TRKB residual activity): 99.7% | remaining activity at 1 µM (340 wild-type kinases [10]; 1 µM 2015, read-out: TRKB residual activity): 91.3% | remaining activity at 0.2 µM (340 wild-type kinases [10]; TRKB, 0.2 µM, read-out: residual activity): 99.7% | remaining activity at 1 µM (340 wild-type kinases [10]; TRKB, 1 µM, read-out: residual activity): 91.3% | remaining activity at 0.2 µM (340 wild-type kinases [11]; 0.2 µM 2015, read-out: CSF1R residual activity): 97.2% | remaining activity at 1 µM (340 wild-type kinases [11]; 1 µM 2015, read-out: CSF1R residual activity): 84% | remaining activity at 0.2 µM (340 wild-type kinases [11]; CSF1R, 0.2 µM, read-out: residual activity): 97.2% | remaining activity at 1 µM (340 wild-type kinases [11]; CSF1R, 1 µM, read-out: residual activity): 84%
